Source: ChEMBL document CHEMBL5104193, “Hypoxia-Activated Prodrugs with Dual COX-2/CA Inhibitory Effects on Attenuating Cardiac Inflammation under Hypoxia” (J Med Chem, 2022)
Calls of active or inactive are those of the source. The calls are words filed in the database; no cut-off is given here.

Columns and labels:
H9c2 [1] = experiment: Protection against LPS/hypoxia induced cell injury in rat H9c2 cells assessed as recovery of cell viability in presence of 2-(4-(5-oxo-5-((5-sulfamoyl-1,3,4-thiadiazol-2-yl)amino)pentyl)-1H-1,2,3-triazol-1-yl)acetic acid and Na2WO4 by CCK-8 assay; type: functional, cell-based
H9c2 [2] = experiment: Protection against LPS/hypoxia induced apoptosis in rat H9c2 cells assessed as reduction in necrotic cells at 10 umol/L incubated for 4 hrs under hypoxia condition in presence of 2-(4-(5-oxo-5-((5-sulfamoyl-1,3,4-thiadiazol-2-yl)amino)pentyl)-1H-1,2,3-triazol-1-yl)acetic acid by AnnexinV-FITC/propidium iodide staining based flow cytometry analysis (reference value: 31.02%); type: functional; design: scale not given: the % may be the effect or the level left; settings: dose 10 µmol/L, at 10 µM
H9c2 [3] = experiment: Antiinflammatory activity in LPS/hypoxia induced CA9 knockdown rat H9c2 cells assessed as decrease in TNF-alpha protein level at 10 uM by Western blot analysis; type: functional, cell-based
H9c2 [4] = experiment: Anti-inflammatory activity in rat H9c2 cells assessed as inhibition of endogenous IL-6 protein expression in presence of 2-(4-(5-oxo-5-((5-sulfamoyl-1,3,4-thiadiazol-2-yl)amino)pentyl)-1H-1,2,3-triazol-1-yl)acetic acid by DAPI staining based immunofluorescence analysis; type: functional, cell-based
H9c2 [5] = experiment: Inhibition of intracellular ROS level in LPS/hypoxia induced rat H9c2 cells in presence of 2-(4-(5-oxo-5-((5-sulfamoyl-1,3,4-thiadiazol-2-yl)amino)pentyl)-1H-1,2,3-triazol-1-yl)acetic acid and Na2WO4 by DCFH-DA probe based fluorescence confocal microscopy analysis; type: functional, cell-based
Rattus norvegicus = experiment: Antiinflammatory activity against LPS/talc powder induced pericarditic Wistar rat assessed as elimination of pericardial effusion at 20 mg/kg, ip pretreated for 2 hrs followed by LPS/tal powder stimulation measured after 48 hrs in presence of 2-(4-(5-oxo-5-((5-sulfamoyl-1,3,4-thiadiazol-2-yl)amino)pentyl)-1H-1,2,3-triazol-1-yl)acetic acid; type: functional, organism-based; settings: time 50.0 hrs
H9c2 [6] = experiment: Anti-inflammatory activity in LPS/hypoxia induced rat H9c2 cells assessed as increase in VEGF expression at 10 uM in presence of 2-(4-(5-oxo-5-((5-sulfamoyl-1,3,4-thiadiazol-2-yl)amino)pentyl)-1H-1,2,3-triazol-1-yl)acetic acid by Western blot analysis; type: functional, cell-based
H9c2 [7] = experiment: Anti-inflammatory activity in LPS/hypoxia induced rat H9c2 cells assessed as reduction of IL-6 protein expression at 10 uM by Western blot analysis; type: functional, cell-based
H9c2 [8] = experiment: Anti-inflammatory activity in rat H9c2 cells assessed as downregulation of cytochrome C expression at 10 uM by Western blot analysis; type: functional, cell-based
H9c2 [9] = experiment: Protection against LPS/hypoxia induced cell injury in rat H9c2 cells assessed as recovery of cell viability in presence of 2-(4-(5-oxo-5-((5-sulfamoyl-1,3,4-thiadiazol-2-yl)amino)pentyl)-1H-1,2,3-triazol-1-yl)acetic acid by CCK-8 assay (reference value: 69.0%); type: functional

**Q.** For COc1ccc2c(c1)c(CC(=O)O)c(C)n2C(=O)c1ccc(Cl)cc1 [INDOMETHACIN], which Activity (H9c2 [1]) is on record?
**A.** Active

**Q.** What about the Activity (H9c2 [2]) of the same compound?
**A.** 9.61%

**Q.** And the Activity (H9c2 [3])?
**A.** Active

**Q.** What about the Activity (H9c2 [4]) of the same compound?
**A.** Active

**Q.** What about the inhibition (H9c2 [5]) of the same compound?
**A.** Active

**Q.** What about the Activity (Rattus norvegicus) of the same compound?
**A.** Active

**Q.** And the Activity (H9c2 [6])?
**A.** Active

**Q.** What about the Activity (H9c2 [7]) of the same compound?
**A.** Active

**Q.** And the Activity (H9c2 [8])?
**A.** Active

**Q.** And the Activity (H9c2 [9])?
**A.** 91.8%
